From EP0618203A1, “3-O-acylated catechins and method of producing same” (MITSUI NORIN CO., LTD., priority 1993, dated 1994)

Experiments:
[1] = Antioxidative activity in salad oil, Rancimat method (induction time); conditions: 100ppm in salad oil, 120°C, Control 3.40
Protocol: We investigated the antioxidative activity of the acylated derivatives of (-)-epigallocatechin, one of the most powerful antioxidants in tea. […] (The reaction was conducted at a temperature of 120°C).

[2] = Solubility in fats and oils (turbidity of salad oil, absorbance at 660nm); format: physicochemical; conditions: sample added to salad oil (Honen Corporation) at 100ppm; turbidity as absorbance at 660nm; Control 0.057; lower = better dissolved
Protocol: Each sample was added to salad oil (Honen Corporation) in a concentration of 100ppm, and turbidity was determined by measuring absorbance at 660nm.

CCCC(=O)O[C@@H]1Cc2c(O)cc(O)cc2O[C@@H]1c1cc(O)c(O)c(O)c1 [(-)-3-0-Butyryl epigallocatechin, (-)-3-0-butyryl-epigallocatechin]
Induction Time [1]: 6.07 h

CCC(=O)O[C@@H]1Cc2c(O)cc(O)cc2O[C@@H]1c1cc(O)c(O)c(O)c1 [(-)-3-0-Propionyl epigallocatechin, (-)-3-0-propionyl epigallocatechin]
Induction Time [1]: 6.02 h

Oc1cc(O)c2c(c1)O[C@H](c1cc(O)c(O)c(O)c1)[C@H](O)C2 [(-)-Epigallocatechin, (-)-epigallocatechin]
OD 660 [2]: 0.277
Induction Time [1]: 6.03 h
